One compound from US8716237B2, “Methods for the treatment or prevention of hemorrhagic conditions” (University of Rochester, priority 2007, dated 2014) can be followed below.

Test [1] relates to Cyld−/− mice. Description: Survival of Cyld−/− mice inoculated with S. pneumoniae after pretreatment. Type of test: in vivo, mouse. The note with it: SB203580 10 mg/kg intraperitoneally 2 hours before S. pneumoniae inoculation. On the procedure:
For S. pneumoniae-induced lethal infections in wild type, Cyld^−/−, Mkk3^−/−, and PAI-1^−/− mice, anaesthetized mice were intratracheally inoculated with live S. pneumoniae, S. pneumoniae wild type or pneumolysin mutant lysate, or pneumolysin (“PLY”), at a concentration of 5×10^7CFU per mouse for live bacteria and bacterial lysate and 200 ng/mouse for PLY in all experiments unless otherwise indicated, and saline was inoculated as control. The mice were monitored for lethality every 2 hours for the first 12 hours and every 12 hours for 5 days thereafter. To assess the effect of perturbing p38 MAPK signaling on S. pneumoniae-induced lethality in Cyld^−/− mice, Cyld^−/− mice were pretreated with the p38 inhibitor SB203580 (10 mg/kg, intraperitoneally in Cyld^−/− mice) 2 hours before S. pneumoniae inoculation, and mice were then intratracheally inoculated with S. pneumoniae. To determine the effect of administration of exogenous PAI-1 on S. pneumoniae-induced lethality, mice were intratracheally administered with mouse rPAI-1 (12.5 μg/mouse) or saline as control, followed by S. pneumoniae and PLY inoculation 1 day after PAI-1 administration. For PAI-1 neutralization in Cyld^−/− mice, Cyld^−/− mice were intraperitoneally injected with α-PAI-1 mAb (25 μg/mouse for histological analysis and 50 μg/mouse for lethality) 2 hours before S. pneumoniae inoculation. Mouse IgG was used as control. […] Lung tissues were then subjected to histological analysis and total mRNA and protein extraction. In all Examples, saline was used as a control unless otherwise specified.
To assess the effect of perturbing NF-κB signaling on S.p.-induced lethality in Cyld^−/− mice, Cyld^−/− mice were pretreated with the IKK inhibitor Wedelolactone (10 mg/kg, intraperitoneally) 2 hours before S.p. inoculation, and mice were then intratracheally inoculated with S.p.
Differences in survival between wild-type, Cyld-deficient (“Cyld^−/−”), Mkk3-deficient (“Mkk3^−/−”), and PAI/−/−deficient (“PAI-1^−/−”) mice after saline, S. pneumoniae, S. pneumoniae lysate, and/or pneumolysin inoculation with or without SB203580, rPAI-1, or α-PAI-1 mAb were determined by Kaplan-Meier analysis. All tests were performed using SPSS14.0 software (SPSS Inc.). All in vivo survival rate data were evaluated by Log Lank test. All other in vivo and in vitro data were evaluated by Student t-test. Statistical significance was accepted at a value of p<0.05.

Test [2] deals with PAI-1. Description: PAI-1 induction in BEAS-2B, SAEC and NHBE cells. Format: cell-based, human. Particulars: SB203580. The source says: J. Physiol. Lung Cell. Mol. Physiol. 281:L616-23 (2001), and Hasegawa et al., “Decreased Intracellular Iron Availability Suppresses Epithelial Cell Surface Plasmin Generation. Transcriptional and Post-transcriptional Effects on u-PA and PAI-1 Expression,” Am. J. Respir. Cell. Mol. Biol. 21:275-82 (1999), each of which is hereby incorporated by reference in its entirety. Wild type and Cyld-deficient mouse embryonic fibroblasts were obtained from E13 embryos and maintained in DMEM supplemented with 10% FBS (Invitrogen). […]
Cells were cultured on 12-well plates and transfected with various expression plasmids, as described in Examples 1-15 and the Brief Description of the Drawings. […] After 5 hours, the cells were harvested for either RNA extraction and real-time quantitative PCR analysis as described in the Examples or luciferase assay. […]
Total RNA was isolated with TRIzol reagent (Invitrogen) by following the manufacturer's instructions. Real-Time Quantitative RT-PCR analysis of PAI-1 and CYLD were performed as described in Jono et al., “NF-κB Is Essential for Induction of CYLD, the Negative Regulator of NF-κB: Evidence for a Novel Inducible Autoregulatory Feedback Pathway,” J. Biol. Chem. 279:36171-4 (2004), which is hereby incorporated by reference in its entirety. […]

With `C[S+]([O-])c1ccc(-c2nc(-c3ccncc3)c(-c3ccc(F)cc3)[nH]2)cc1` (stereo not shown) [SB203580], in test [1], the “inoculated mice died within 48 hours” value was “approximately 80%”, the survival is recorded as 20% and the “time after inoculation at which mice started to die” value worked out at 12 h. In test [2], the “PAI-1 induction by S. pneumoniae WT and PLY” value was “inhibited PAI-1 induction”.
